Results on 61 molecules are retold here after doi:10.1101/2021.10.07.463234v2 (biorxiv, 2021).

Counter-ions that a name gives are not always drawn.

The target of the first assay is SARS-CoV-2 Mac1 (Severe acute respiratory syndrome coronavirus 2, UniProt P0DTD1). The assay can be described thus: biochemical. As to conditions: 100 µM; inhibitor.
As for `CC1=C(C(=O)O)N2C(=O)[C@@H](NC(=O)[C@H](N)C3=CCC=CC3)[C@H]2SC1` [Cefradine], the “%inhibition” value amounted to 0.656%.

As for `CO/N=C(\C(=O)N[C@@H]1C(=O)N2C(C(=O)O)=C(CSC(=O)c3ccco3)CS[C@H]12)c1csc(N)n1` [Ceftiofur HCl], the “%inhibition” value came out at 20.8%.

Regarding `CO/N=C(\C(=O)N[C@@H]1C(=O)N2C(C(=O)O)=C(CSC(=O)c3ccco3)CS[C@H]12)c1csc(N)n1` [Ceftiofur], the “%inhibition” value is recorded as 0%.

Take `CO/N=C(\C(=O)N[C@@H]1C(=O)N2C(C(=O)O)=C(CSc3nc(=O)c(O)nn3C)CS[C@H]12)c1csc(N)n1` [Ceftriaxone Sodium Trihydrate]: the “%inhibition” value was 0.1034%.

Consider `CO/N=C(\C(=O)N[C@@H]1C(=O)N2C(C(=O)O)=C(CSc3nc(=O)c(O)nn3C)CS[C@H]12)c1csc(N)n1` [Ceftriaxone Sodium], for which the “%inhibition” value is recorded as 17.28%.

With `CC1=C(C(=O)O)N2C(=O)[C@@H](NC(=O)[C@H](N)C3=CCC=CC3)[C@H]2SC1` [Cephradine monohydrate], the “%inhibition” value amounted to 0%.

As to `NC(=NCCCCCCN=C(N)/N=C(\N)Nc1ccc(Cl)cc1)/N=C(\N)Nc1ccc(Cl)cc1` [Chlorhexidine?2HCl], the “%inhibition” value came out at 7.76%.

On to `CCN(CC)CCCC(C)Nc1ccnc2cc(Cl)ccc12` (stereo not shown) [Chloroquine Phosphate], for which the “%inhibition” value came to 4.168%.

In the case of `CN(C)CC/C=C1/c2ccccc2Sc2ccc(Cl)cc21` [Chlorprothixene hydrochloride], the “%inhibition” value came to 0%.

Turning to `CN(C)CC/C=C1/c2ccccc2Sc2ccc(Cl)cc21` [Chlorprothixene], the “%inhibition” value was 13.67%.

Staying with this assay, now noted: read-out: %inhibition.
Take `CC1=C(C(=O)O)N2C(=O)[C@@H](NC(=O)[C@H](N)c3ccc(O)cc3)[C@H]2SC1` [Cefadroxil hydrate]: the inhibition at 100 µM was determined as 0%.

Consider `Cn1nnnc1SCC1=C(C(=O)O)N2C(=O)[C@@H](NC(=O)[C@H](OC=O)c3ccccc3)[C@H]2SC1` [Cefamandole nafate], for which the inhibition at 100 µM worked out at 0%.

Regarding `Cc1nnc(SCC2=C(C(=O)O)N3C(=O)[C@@H](NC(=O)Cn4cnnn4)[C@H]3SC2)s1` [Cefazolin Sodium], the inhibition at 100 µM amounted to 2.52%.

As for `CC/C=C(\C(=O)N[C@@H]1C(=O)N2C(C(=O)OCOC(=O)C(C)(C)C)=C(COC(N)=O)CS[C@H]12)c1csc(N)n1` [Cefcapene Pivoxil Hydrochloride], the inhibition at 100 µM came to 0.547%.

As to `CO/N=C(\C(=O)N[C@@H]1C(=O)N2C(C(=O)OCOC(=O)C(C)(C)C)=C(/C=C\c3scnc3C)CS[C@H]12)c1csc(N)n1` [Cefditoren Pivoxil], the inhibition at 100 µM is 0%.

Take `CO/N=C(\C(=O)N[C@@H]1C(=O)N2C(C(=O)O)=C(C[N+]3(C)CCCC3)CS[C@H]12)c1csc(N)n1` [Cefepime Dihydrochloride Monohydrate]: the inhibition at 100 µM was 0%.

Regarding `C=CC1=C(C(=O)O)N2C(=O)[C@@H](NC(=O)/C(=N\OCC(=O)O)c3csc(N)n3)[C@H]2SC1` [Cefixime], the inhibition at 100 µM was found to be 0%.

Turning to `CO/N=C(\C(=O)N[C@@H]1C(=O)N2C(C(=O)O)=C(CSc3nnnn3C)CS[C@H]12)c1csc(N)n1` [Cefmenoxime hydrochloride], the inhibition at 100 µM stood at 0%.

In the case of `CO[C@@]1(NC(=O)CSCC#N)C(=O)N2C(C(=O)O)=C(CSc3nnnn3C)CS[C@@H]21` [Cefmetazole sodium], the inhibition at 100 µM worked out at 8.58%.

For the molecule `O=C(O)C1=C(CSc2nnnn2CS(=O)(=O)O)CS[C@@H]2[C@H](NC(=O)[C@H](O)c3ccccc3)C(=O)N12` [Cefonicid sodium], the inhibition at 100 µM stood at 0%.

`CCN1CCN(C(=O)N[C@@H](C(=O)N[C@@H]2C(=O)N3C(C(=O)O)=C(CSc4nnnn4C)CS[C@H]23)c2ccc(O)cc2)C(=O)C1=O` [Cefoperazone]: the inhibition at 100 µM was determined as 0%.

For the molecule `NCc1ccccc1CC(=O)N[C@@H]1C(=O)N2C(C(=O)O)=C(CSc3nnnn3CC(=O)O)CS[C@H]12` [Ceforanide], the inhibition at 100 µM was 0%.

In the case of `CO/N=C(\C(=O)N[C@@H]1C(=O)N2C(C(=O)O)=C(Cn3ccc(=N)n3CCO)CS[C@H]12)c1csc(N)n1` [Cefoselis Sulfate], the inhibition at 100 µM was found to be 22.8%.

Consider `CO/N=C(\C(=O)N[C@@H]1C(=O)N2C(C(=O)O)=C(COC(C)=O)CS[C@H]12)c1csc(N)n1` [Cefotaxime sodium], for which the inhibition at 100 µM turned out to be 0.981%.

With `CC(OC(=O)OC1CCCCC1)OC(=O)C1=C(CSc2nnnn2CCN(C)C)CS[C@@H]2[C@H](NC(=O)Cc3csc(N)n3)C(=O)N12` (stereo partly shown) [Cefotiam Hexetil Hydrochloride], the inhibition at 100 µM was determined as 0%.

For the molecule `CN(C)CCn1nnnc1SCC1=C(C(=O)O)N2C(=O)[C@@H](NC(=O)Cc3csc(N)n3)[C@H]2SC1` [Cefotiam hydrochloride], the inhibition at 100 µM worked out at 23.3%.

`CO[C@@]1(NC(=O)Cc2cccs2)C(=O)N2C(C(=O)O)=C(COC(N)=O)CS[C@@H]21` [Cefoxitin sodium]: the inhibition at 100 µM worked out at 0%.

Take `CO/N=C(\C(=O)N[C@@H]1C(=O)N2C(C(=O)[O-])=C(C[n+]3ccn4ncccc43)CS[C@H]12)c1nsc(N)n1` [Cefozopran hydrochloride]: the inhibition at 100 µM was 8.9%.

Consider `Cc1cc(O)c(C(=O)N[C@@H](C(=O)N[C@@H]2C(=O)N3C(C(=O)O)=C(CSc4nnnn4C)CS[C@H]23)c2ccc(O)cc2)cn1` [Cefpiramide sodium], for which the inhibition at 100 µM came out at 0%.

As for `CO/N=C(\C(=O)N[C@@H]1C(=O)N2C(C(=O)[O-])=C(C[n+]3cccc4c3CCC4)CS[C@H]12)c1csc(N)n1` [Cefpirome sulfate], the inhibition at 100 µM turned out to be 0%.

For the molecule `COCC1=C(C(=O)OC(C)OC(=O)OC(C)C)N2C(=O)[C@@H](NC(=O)/C(=N\OC)c3csc(N)n3)[C@H]2SC1` (stereo partly shown) [Cefpodoxime proxetil], the inhibition at 100 µM was 13.2%.

As for `CC(C)(O/N=C(\C(=O)N[C@@H]1C(=O)N2C(C(=O)[O-])=C(C[n+]3ccccc3)CS[C@H]12)c1csc(N)n1)C(=O)O` [Ceftazidime Pentahydrate], the inhibition at 100 µM is 0%.

Consider `Nc1nc(/C(=C/CC(=O)O)C(=O)N[C@@H]2C(=O)N3C(C(=O)O)=CCS[C@H]23)cs1` [Ceftibuten dihydrate], for which the inhibition at 100 µM stood at 10.7%.

Consider `CO/N=C(\C(=O)N[C@@H]1C(=O)N2C(C(=O)O)=CCS[C@H]12)c1csc(N)n1` [Ceftizoxime], for which the inhibition at 100 µM stood at 12.3%.

In the case of `CO/N=C(\C(=O)N[C@@H]1C(=O)N2C(C(=O)OC(C)OC(C)=O)=C(COC(N)=O)CS[C@H]12)c1ccco1` (stereo partly shown) [Cefuroxime axetil], the inhibition at 100 µM was 0%.

`CO/N=C(\C(=O)N[C@@H]1C(=O)N2C(C(=O)O)=C(COC(N)=O)CS[C@H]12)c1ccco1` [Cefuroxime sodium]: the inhibition at 100 µM was 0%.

On to `Cc1ccc(-c2cc(C(F)(F)F)nn2-c2ccc(S(N)(=O)=O)cc2)cc1` [Celecoxib], for which the inhibition at 100 µM came to 10.4%.

Take `CC1=C(C(=O)O)N2C(=O)[C@@H](NC(=O)[C@H](N)c3ccccc3)[C@H]2SC1` [Cephalexin]: the inhibition at 100 µM amounted to 0%.

For `CC(=O)OCC1=C(C(=O)O)N2C(=O)[C@@H](NC(=O)Cc3cccs3)[C@H]2SC1` [Cephalothin], the inhibition at 100 µM was determined as 8.54%.

In the case of `CC(=O)OCC1=C(C(=O)O)N2C(=O)[C@@H](NC(=O)CSc3ccncc3)[C@H]2SC1` [Cephapirin Sodium], the inhibition at 100 µM turned out to be 0%.

Regarding `COc1ccc2cc1Oc1ccc(cc1)C[C@H]1c3c(cc4c(c3Oc3cc5c(cc3OC)CCN(C)[C@@H]5C2)OCO4)CCN1C` [Cepharanthine], the inhibition at 100 µM was determined as 18.2%.

As to `CCS(=O)(=O)N1CCN(c2ccc(Nc3ncc(C(N)=O)c(NC4CC4)n3)cc2)CC1` [Cerdulatinib (PRT062070, PRT2070)], the inhibition at 100 µM amounted to 15.9%.

As for `Cc1cc(Nc2ncc(Cl)c(Nc3ccccc3S(=O)(=O)C(C)C)n2)c(OC(C)C)cc1C1CCNCC1` [Ceritinib (LDK378)], the inhibition at 100 µM amounted to 0%.

Consider `CCCCCCCCCCCCCCCCOc1nc2ccc(C)cc2c(=O)o1` [Cetilistat], for which the inhibition at 100 µM was 8.35%.

Regarding `O=C(O)COCCN1CCN(C(c2ccccc2)c2ccc(Cl)cc2)CC1` (stereo not shown) [Cetirizine DiHCl], the inhibition at 100 µM turned out to be 1.2%.

In the case of `CCCCCCCCCCCCCCCC[N+](C)(C)C` [Cetrimonium Bromide (CTAB)], the inhibition at 100 µM worked out at 25.1%.

As for `C[C@H](CCC(=O)O)[C@H]1CC[C@H]2[C@@H]3[C@H](O)C[C@@H]4C[C@H](O)CC[C@]4(C)[C@H]3CC[C@]12C` [Chenodeoxycholic Acid], the inhibition at 100 µM came to 0%.

For the molecule `O=C(N[C@H](CO)[C@H](O)c1ccc([N+](=O)[O-])cc1)C(Cl)Cl` [Chloramphenicol], the inhibition at 100 µM is 0%.

For `NC(=NCCCCCCN=C(N)/N=C(\N)Nc1ccc(Cl)cc1)/N=C(\N)Nc1ccc(Cl)cc1` [Chlorhexidine], the inhibition at 100 µM stood at 10%.

Regarding `CC(=O)O[C@]1(C(C)=O)CC[C@H]2[C@@H]3C=C(Cl)C4=CC(=O)CC[C@]4(C)[C@H]3CC[C@@]21C` [Chlormadinone acetate], the inhibition at 100 µM came to 0%.

Take `CN1C(=O)CCS(=O)(=O)C1c1ccc(Cl)cc1` (stereo not shown) [Chlormezanone]: the inhibition at 100 µM turned out to be 20.4%.

With `Cc1cc(O)ccc1Cl` [Chlorocresol], the inhibition at 100 µM came out at 24.2%.

Turning to `CCN(CC)CCOC(=O)c1ccc(N)cc1Cl` [Chloroprocaine HCl], the inhibition at 100 µM was determined as 0%.

In the case of `NS(=O)(=O)c1cc2c(cc1Cl)N=CNS2(=O)=O` [Chlorothiazide], the inhibition at 100 µM is 0%.

Consider `COc1ccc(C(Cl)=C(c2ccc(OC)cc2)c2ccc(OC)cc2)cc1` [Chlorotrianisene], for which the inhibition at 100 µM amounted to 0%.

In the case of `Oc1c(Cl)cc(Cl)c2cccnc12` [Chloroxine], the inhibition at 100 µM came to 10.2%.

As for `Cc1cc(O)cc(C)c1Cl` [Chloroxylenol], the inhibition at 100 µM was found to be 0%.

On to `CN(C)CCC(c1ccc(Cl)cc1)c1ccccn1` (stereo not shown) [Chlorpheniramine Maleate], for which the inhibition at 100 µM was determined as 6.37%.

With `CN(C)CCCN1c2ccccc2Sc2ccc(Cl)cc21` [Chlorpromazine HCl], the inhibition at 100 µM worked out at 0%.

In the case of `CCCNC(=O)NS(=O)(=O)c1ccc(Cl)cc1` [Chlorpropamide], the inhibition at 100 µM stood at 0%.

With `Cc1ccc2c(Cl)cc(Cl)c(O)c2n1` [Chlorquinaldol], the inhibition at 100 µM is 1.48%.

The term %inhibition denotes the change of the read-out against control, counted positive when it falls. High values mean strong suppression, low ones little suppression. What is called inhibition is the drop in the measured response relative to a control, in per cent.
